Assay [1] concerns MDA-MB-231. Nature of the assay: Antiproliferative activity against human MDA-MB-231 cells after 4 hrs by MTT assay. It counts as functional, cell-based. Conditions: MDA-MB-231, 4 h.
The test system of another assay is LLC-PK1. The assay is described as follows: Cytotoxicity against pig LLC-PK1 cells after 4 hrs by MTT assay. It counts as cell-based. Conditions: Sus scrofa, LLC-PK1, 4 h. Background: Tetrazolium assays rely on reduction of a dye to a coloured formazan, in cell work by metabolically active cells.
The subject of assay [2] is MDA-MB-231. Nature of the assay: Induction of apoptosis in human MDA-MB-231 cells assessed as increase in cells at early apoptotic phase at 2.5 uM after 24 hrs by annexin-V-FITC/propidium iodide staining- based flow cytometric analysis (reference value: 4.76%). Type of assay: functional. Background: Flow cytometry measures light scatter and fluorescence of single cells or particles in a stream.

In assay [3] the test system is MDA-MB-231. Nature of the assay: Induction of apoptosis in human MDA-MB-231 cells assessed as increase in expression of cleaved caspase 8 at 2.5 to 5.8 uM after 24 hrs by SDS-polyactylamide gel electrophoresis. It counts as functional, cell-based.
Assay [4] deals with MDA-MB-231. Nature of the assay: Induction of apoptosis in human MDA-MB-231 cells assessed as increase in expression of cleaved caspase 3 at 2.5 to 5.8 uM after 24 hrs by SDS-polyactylamide gel electrophoresis. Type of assay: functional, cell-based.
The test system of assay [5] is MDA-MB-231. The assay is described as follows: Induction of apoptosis in human MDA-MB-231 cells assessed as increase in expression of cleaved PARP at 2.5 to 5.8 uM after 24 hrs by SDS-polyactylamide gel electrophoresis. It counts as functional, cell-based.
Assay [6] deals with MDA-MB-231. Nature of the assay: Induction of apoptosis in human MDA-MB-231 cells assessed as decrease in expression of full-length BID at 2.5 to 5.8 uM after 24 hrs by SDS-polyactylamide gel electrophoresis. Type of assay: functional, cell-based.

IC50 and Activity data for eight compounds are collected here from ChEMBL document CHEMBL3351753, “Inhibitory effects of ginseng sapogenins on the proliferation of triple negative breast cancer MDA-MB-231 cells” (Bioorg Med Chem Lett, 2014).

Active and inactive are the calls of the source. The rule behind the calls is not given here.

For `CC(=O)O[C@H]1C(=O)[C@@]2(C)[C@H]([C@H](OC(=O)c3ccccc3)[C@]3(O)C[C@H](OC(=O)[C@H](O)[C@@H](NC(=O)c4ccccc4)c4ccccc4)C(C)=C1C3(C)C)[C@]1(OC(C)=O)CO[C@@H]1C[C@@H]2O` [PACLITAXEL], half-maximal inhibition in the assay with MDA-MB-231 [1] (IC50) required 6.2 µM.

Compound `COc1cccc2c1C(=O)c1c(O)c3c(c(O)c1C2=O)C[C@@](O)(C(=O)CO)C[C@@H]3O[C@H]1C[C@H](N)[C@H](O)[C@H](C)O1` [DOXORUBICIN] gave an IC50 with MDA-MB-231 [1] of 2.9 µM. Compared with the last compound, the IC50 is about 2.1-fold lower.

`COc1cc(/C=C/C(=O)CC(=O)/C=C/c2ccc(O)c(OC)c2)ccc1O` [CURCUMIN]: 34.4 µM corresponded to half-maximal inhibition in the assay with MDA-MB-231 [1] (IC50).

Take `CC(C)=CCC[C@](C)(O)[C@H]1CC[C@]2(C)[C@@H]1[C@H](O)C[C@@H]1[C@@]3(C)CC[C@H](O)C(C)(C)[C@@H]3CC[C@]12C`: the IC50 in the assay with MDA-MB-231 [1] came to 5.9 µM; with LLC-PK1, 36.7 µM. In the assay with MDA-MB-231 [2], the Activity is recorded as 8.18%. Moreover, the result with MDA-MB-231 [3], in the assay on MDA-MB-231 [4], with MDA-MB-231 [5] and in the assay on MDA-MB-231 [6] was Active.

For `CC(C)CCC[C@](C)(O)[C@H]1CC[C@]2(C)[C@@H]1[C@H](O)C[C@@H]1[C@@]3(C)CC[C@H](O)C(C)(C)[C@@H]3CC[C@]12C`, half-maximal inhibition in the assay with MDA-MB-231 [1] (IC50) required 27 µM.

`CC(C)=CCC[C@](C)(O)[C@H]1CC[C@]2(C)[C@@H]1[C@H](O)C[C@@H]1[C@@]3(C)CC[C@H](O)C(C)(C)[C@@H]3[C@@H](O)C[C@]12C`: inhibition in the assay on MDA-MB-231 [1] was half-maximal at 12.2 µM (IC50).

As for `CC(C)CCC[C@](C)(O)[C@H]1CC[C@]2(C)[C@@H]1[C@H](O)C[C@@H]1[C@@]3(C)CC[C@H](O)C(C)(C)[C@@H]3[C@@H](O)C[C@]12C`, the IC50 with MDA-MB-231 [1] turned out to be 25.8 µM.

In the assay on MDA-MB-231 [1], `O=C(O[C@@H]1Cc2c(O)cc(O)cc2O[C@@H]1c1cc(O)c(O)c(O)c1)c1cc(O)c(O)c(O)c1` [EPIGALOCATECHIN GALLATE] had a half-maximal inhibitory concentration (IC50) of 76.1 µM.

Usually IC50 stands for the concentration that gives 50% inhibition. A higher IC50 goes with weaker potency in that assay.
